{
  "source": "patent US9422293B2",
  "about": "(priority 2006, dated 2016)",
  "note": "Structures can show the parent of a compound that is named as a salt.",
  "data": [
    {"biological_target": "rat TRPV1 (Rattus norvegicus (Rat), UniProt O35433)", "sequence (O35433 whole entry)": "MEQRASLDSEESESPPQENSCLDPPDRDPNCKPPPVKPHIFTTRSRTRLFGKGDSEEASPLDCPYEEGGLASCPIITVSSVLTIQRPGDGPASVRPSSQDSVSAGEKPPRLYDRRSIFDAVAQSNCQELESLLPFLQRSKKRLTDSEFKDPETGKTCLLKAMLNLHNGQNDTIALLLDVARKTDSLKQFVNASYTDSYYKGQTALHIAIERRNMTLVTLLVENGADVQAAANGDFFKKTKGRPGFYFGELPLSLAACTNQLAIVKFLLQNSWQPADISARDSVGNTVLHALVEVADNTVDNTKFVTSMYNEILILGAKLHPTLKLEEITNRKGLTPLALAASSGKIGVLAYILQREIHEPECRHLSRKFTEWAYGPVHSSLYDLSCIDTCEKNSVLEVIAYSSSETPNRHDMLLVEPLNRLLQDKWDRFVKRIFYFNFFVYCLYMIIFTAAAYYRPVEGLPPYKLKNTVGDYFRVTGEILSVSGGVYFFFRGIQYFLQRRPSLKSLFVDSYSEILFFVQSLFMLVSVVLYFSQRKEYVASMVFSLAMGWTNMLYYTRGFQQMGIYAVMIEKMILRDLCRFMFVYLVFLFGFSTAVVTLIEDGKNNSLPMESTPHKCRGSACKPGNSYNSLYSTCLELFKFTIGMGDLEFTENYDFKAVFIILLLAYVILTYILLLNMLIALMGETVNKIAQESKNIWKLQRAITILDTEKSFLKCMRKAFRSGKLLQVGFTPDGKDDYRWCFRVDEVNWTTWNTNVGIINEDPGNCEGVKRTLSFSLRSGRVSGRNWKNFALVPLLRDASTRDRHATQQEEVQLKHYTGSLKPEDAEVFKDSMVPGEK", "conditions": "read-out: Rat IC50", "units": {"IC50": "nM"}, "values": [
      {"smiles": "CC(Oc1nc2c(c(Nc3ccc(S(=O)(=O)C(F)(F)F)cc3)n1)CCN(c1ncccc1C(F)(F)F)CC2)C1CC1", "note": "(stereo not drawn) [Example 317, 2-[(1-Cyclopropylethyl)oxy]-7-[3-(trifluoromethyl)pyridin-2-yl]-N-{4-[(trifluoromethyl)sulfonyl]phenyl}-6,7,8,9-tetrahydro-5H-pyrimido[4,5-d]azepin-4-amine]", "IC50": 610},
      {"smiles": "FC(F)(F)c1ccc(Nc2nc(N3CCCOCC3)nc3c2CCN(c2ncccc2C(F)(F)F)CC3)cc1Cl", "note": "[Example 245, N-[3-Chloro-4-(trifluoromethyl)phenyl]-2-(1,4-oxazepan-4-yl)-7-[3-(trifluoromethyl)pyridin-2-yl]-6,7,8,9-tetrahydro-5H-pyrimido[4,5-d]azepin-4-amine trifluoroacetic acid salt]", "IC50": 20},
      {"smiles": "COC(=O)C(C)(C)c1ccc(Nc2nc(C(C)C)nc3c2CCN(c2ncccc2C(F)(F)F)CC3)cc1", "note": "[Example 174, Methyl 2-methyl-2-[4-({2-(1-methylethyl)-7-[3-(trifluoromethyl)pyridin-2-yl]-6,7,8,9-tetrahydro-5H-pyrimido[4,5-d]azepin-4-yl}amino)phenyl]propanoate]", "IC50": 2010},
      {"smiles": "CC(C)c1nc2c(c(Nc3ccc(C(C)(C)O)cc3)n1)CCN(c1ncccc1C(F)(F)F)CC2", "note": "[Example 178, 2-[4-({2-(1-Methylethyl)-7-[3-(trifluoromethyl)pyridin-2-yl]-6,7,8,9-tetrahydro-5H-pyrimido[4,5-d]azepin-4-yl}amino)phenyl]propan-2-ol]", "IC50": 110},
      {"smiles": "COCc1nc2c(c(Nc3ccc(C(C)(C)C)cc3)n1)CCN(c1ncccc1C(F)(F)F)CC2", "note": "[Example 67B, (4-tert-Butyl-phenyl)-[2-methoxymethyl-7-(3-trifluoromethyl-pyridin-2-yl)-6,7,8,9-tetrahydro-5H-pyrimido[4,5-d]azepin-4-yl]-amine trifluoroacetic acid salt]", "IC50": 34},
      {"smiles": "COC(=O)c1cnc(N2CCc3nc(SC)nc(Nc4ccc(C(F)(F)F)cc4)c3CC2)c(Cl)c1", "note": "[Example 303, Methyl 5-chloro-6-[2-(methylsulfanyl)-4-{[4-(trifluoromethyl)phenyl]amino}-5,6,8,9-tetrahydro-7H-pyrimido[4,5-d]azepin-7-yl]pyridine-3-carboxylate]", "IC50": "> 6670"},
      {"smiles": "CC(C)c1nc2c(c(Nc3ccc(C(F)(F)F)cc3)n1)CCN(c1nc3ccccc3nc1C(F)(F)F)CC2", "note": "[Example 35, [2-Isopropyl-7-(3-trifluoromethyl-quinoxalin-2-yl)-6,7,8,9-tetrahydro-5H-pyrimido[4,5-d]azepin-4-yl]-(4-trifluoromethyl-phenyl)-amine]", "IC50": 2400},
      {"smiles": "CC(C)c1nc2c(c(Nc3ccc(C(C)O)cc3)n1)CCN(c1ncccc1C(F)(F)F)CC2", "note": "(stereo not drawn) [Example 182, 1-[4-({2-(1-Methylethyl)-7-[3-(trifluoromethyl)pyridin-2-yl]-6,7,8,9-tetrahydro-5H-pyrimido[4,5-d]azepin-4-yl}amino)phenyl]ethanol]", "IC50": 790},
      {"smiles": "O=S(=O)(NC1CC1)c1cccnc1N1CCc2nc(N3CCCCC3)nc(Nc3ccc(C(F)(F)F)cc3)c2CC1", "note": "[Example 299, N-Cyclopropyl-2-(2-piperidin-1-yl-4-{[4-(trifluoromethyl)phenyl]amino}-5,6,8,9-tetrahydro-7H-pyrimido[4,5-d]azepin-7-yl)pyridine-3-sulfonamide]", "IC50": 3000},
      {"smiles": "Cc1nc2c(c(Nc3ccc(C(F)(F)F)cn3)n1)CCN(c1ncccc1C(F)(F)F)CC2", "note": "[Example 69, [2-Methyl-7-(3-trifluoromethyl-pyridin-2-yl)-6,7,8,9-tetrahydro-5H-pyrimido[4,5-d]azepin-4-yl]-(5-trifluoromethyl-pyridin-2-yl)-amine]", "IC50": 500},
      {"smiles": "Cc1cc(C(F)(F)F)ccc1Nc1nc(OC(C)C2CCCCC2)nc2c1CCN(c1ncccc1C(F)(F)F)CC2", "note": "(stereo not drawn) [Example 309, 2-[(1-Cyclohexylethyl)oxy]-N-[2-methyl-4-(trifluoromethyl)phenyl]-7-[3-(trifluoromethyl)pyridin-2-yl]-6,7,8,9-tetrahydro-5H-pyrimido[4,5-d]azepin-4-amine]", "IC50": 1420},
      {"smiles": "CN(C)c1nc2c(c(Nc3ccc(C(C)(C)C#N)cc3)n1)CCN(c1ncccc1C(F)(F)F)CC2", "note": "[Example 65B, 2-{4-[2-Dimethylamino-7-(3-trifluoromethyl-pyridin-2-yl)-6,7,8,9-tetrahydro-5H-pyrimido[4,5-d]azepin-4-ylamino]-phenyl}-2-methyl-propionitrile trifluoroacetic acid salt]", "IC50": 650},
      {"smiles": "CC(C)c1nc2c(c(Nc3ccc(C(C)(C)C)cc3)n1)CCN(c1ncccc1C(F)(F)F)CC2", "note": "[Example 8, (4-tert-Butyl-phenyl)-[2-isopropyl-7-(3-trifluoromethyl-pyridin-2-yl)-6,7,8,9-tetrahydro-5H-pyrimido[4,5-d]azepin-4-yl]-amine]", "IC50": 25},
      {"smiles": "CC(C)c1nc2c(c(Nc3ccc4c(c3)CCC4)n1)CCN(c1ncccc1C(F)(F)F)CC2", "note": "[Example 141, N-(2,3-Dihydro-1H-inden-5-yl)-2-(1-methylethyl)-7-[3-(trifluoromethyl)pyridin-2-yl]-6,7,8,9-tetrahydro-5H-pyrimido[4,5-d]azepin-4-amine hydrochloride salt]", "IC50": 130},
      {"smiles": "CC(C)(C)c1ccc(Nc2nc(CN3CCCCC3)nc3c2CCN(c2ncccc2C(F)(F)F)CC3)cc1", "note": "[Example 66B, (4-tert-Butyl-phenyl)-[2-piperidin-1-ylmethyl-7-(3-trifluoromethyl-pyridin-2-yl)-6,7,8,9-tetrahydro-5H-pyrimido[4,5-d]azepin-4-yl]-amine trifluoroacetic acid salt]", "IC50": 930},
      {"smiles": "CN(Cc1ccco1)c1nc2c(c(Nc3ccc(C(F)(F)F)cc3)n1)CCN(c1ncccc1C(F)(F)F)CC2", "note": "[Example 216, N^2-(Furan-2-ylmethyl)-N^2-methyl-N^4-[4-(trifluoromethyl)phenyl]-7-[3-(trifluoromethyl)pyridin-2-yl]-6,7,8,9-tetrahydro-5H-pyrimido[4,5-d]azepine-2,4-diamine trifluoroacetic acid salt]", "IC50": 50},
      {"smiles": "CN(C)c1nc2c(c(Nc3ccc(Cl)c(Cl)c3)n1)CCN(c1ncccc1C(F)(F)F)CC2", "note": "[Example 63B, N^4-(3,4-Dichloro-phenyl)-N^2,N^2-dimethyl-7-(3-trifluoromethyl-pyridin-2-yl)-6,7,8,9-tetrahydro-5H-pyrimido[4,5-d]azepine-2,4-diamine trifluoroacetic acid salt]", "IC50": 2500},
      {"smiles": "FC1(F)CCN(c2nc3c(c(Nc4ccc(C(F)(F)F)cc4)n2)CCN(c2ncccc2C(F)(F)F)CC3)C1", "note": "[Example 243, 2-(3,3-Difluoropyrrolidin-1-yl)-N-[4-(trifluoromethyl)phenyl]-7-[3-(trifluoromethyl)pyridin-2-yl]-6,7,8,9-tetrahydro-5H-pyrimido[4,5-d]azepin-4-amine trifluoroacetic acid salt]", "IC50": 450},
      {"smiles": "FC(F)(F)c1ccc(Nc2nc(N3CCCCC3)nc3c2CCN(c2ncccc2C(F)(F)F)CC3)cc1Cl", "note": "[Example 233, N-[3-Chloro-4-(trifluoromethyl)phenyl]-2-piperidin-1-yl-7-[3-(trifluoromethyl)pyridin-2-yl]-6,7,8,9-tetrahydro-5H-pyrimido[4,5-d]azepin-4-amine trifluoroacetic acid salt]", "IC50": 170},
      {"smiles": "CC(C)c1nc2c(c(NCCc3ccc(Cl)c(Cl)c3)n1)CCN(c1ncccc1C(F)(F)F)CC2", "note": "[Example 108, [2-(3,4-Dichloro-phenyl)-ethyl]-[2-isopropyl-7-(3-trifluoromethyl-pyridin-2-yl)-6,7,8,9-tetrahydro-5H-pyrimido[4,5-d]azepin-4-yl]-amine]", "IC50": 940},
      {"smiles": "COCCN(C)c1nc2c(c(Nc3ccc(C(F)(F)F)c(Cl)c3)n1)CCN(c1ncccc1C(F)(F)F)CC2", "note": "[Example 229, N^4-[3-Chloro-4-(trifluoromethyl)phenyl]-N^2-methyl-N^2-[2-(methyloxy)ethyl]-7-[3-(trifluoromethyl)pyridin-2-yl]-6,7,8,9-tetrahydro-5H-pyrimido[4,5-d]azepine-2,4-diamine trifluoroacetic acid salt]", "IC50": 60},
      {"smiles": "FC1(F)CCCN(c2nc3c(c(Nc4ccc(C(F)(F)F)cc4)n2)CCN(c2ncccc2C(F)(F)F)CC3)C1", "note": "[Example 238, 2-(3,3-Difluoropiperidin-1-yl)-N-[4-(trifluoromethyl)phenyl]-7-[3-(trifluoromethyl)pyridin-2-yl]-6,7,8,9-tetrahydro-5H-pyrimido[4,5-d]azepin-4-amine trifluoroacetic acid salt]", "IC50": 40},
      {"smiles": "N#Cc1cccnc1N1CCc2ncnc(Nc3ccc(C(F)(F)F)cc3)c2CC1", "note": "[Example 293, 2-(4-{[4-(Trifluoromethyl)phenyl]amino}-5,6,8,9-tetrahydro-7H-pyrimido[4,5-d]azepin-7-yl)pyridine-3-carbonitrile]", "IC50": 3490},
      {"smiles": "FC1(F)CCN(c2nc3c(c(Nc4ccc(C(F)(F)F)cc4)n2)CCN(c2ncccc2C(F)(F)F)CC3)CC1", "note": "[Example 242, 2-(4,4-Difluoropiperidin-1-yl)-N-[4-(trifluoromethyl)phenyl]-7-[3-(trifluoromethyl)pyridin-2-yl]-6,7,8,9-tetrahydro-5H-pyrimido[4,5-d]azepin-4-amine]", "IC50": 90},
      {"smiles": "OCC1CN(c2nc3c(c(Nc4ccc(C(F)(F)F)cc4)n2)CCN(c2ncccc2C(F)(F)F)CC3)CCO1", "note": "(stereo not drawn) [Example 271, [4-(4-{[4-(Trifluoromethyl)phenyl]amino}-7-[3-(trifluoromethyl)pyridin-2-yl]-6,7,8,9-tetrahydro-5H-pyrimido[4,5-d]azepin-2-yl)morpholin-2-yl]methanol]", "IC50": 840},
      {"smiles": "CN(C)c1nc2c(c(Nc3ccc(C(C)(C)C)cc3)n1)CCN(c1ncccc1C(F)(F)F)CC2", "note": "[Example 48, N^4-(4-tert-Butyl-phenyl)-N^2,N^2-dimethyl-7-(3-trifluoromethyl-pyridin-2-yl)-6,7,8,9-tetrahydro-5H-pyrimido[4,5-d]azepine-2,4-diamine]", "IC50": 74},
      {"smiles": "CN1CCN(c2nc3c(c(Nc4ccc(C(F)(F)F)cc4)n2)CCN(c2ncccc2C(F)(F)F)CC3)CC1", "note": "[Example 92B, [2-(4-Methyl-piperazin-1-yl)-7-(3-trifluoromethyl-pyridin-2-yl)-6,7,8,9-tetrahydro-5H-pyrimido[4,5-d]azepin-4-yl]-(4-trifluoromethyl-phenyl)-amine trifluoroacetic acid salt]", "IC50": 270}
    ]}
  ]
}
